Assay results taken from article PMC6134404 (Organic & biomolecular chemistry, 2018).

What was measured:
OxaC [1] = biological target: T1, OxaC (Penicillium oxalicum, UniProt A0A1B2TT09); assay: X-ray crystal structure, […] Å; type: binding
OxaC [2] = biological target: T1, OxaC; assay: X-ray crystal structure, […] Å; type: binding; remark: listed apart in the source
[3] = test system: C=CC(C)(C)[C@@]12C=C(O)C(=O)N3/C(=C/c4cnc[nH]4)C(=O)N[C@]31N(OC)c1ccccc12; assay: HPLC initial-velocity assay, Michaelis-Menten fit; type: biochemical, Penicillium oxalicum; conditions: 0.9 nM OxaC, 0.5 mM SAM, 50 mM Na/K phosphate pH 8.0, 23 °C
crystal structure = biological target: the molecule itself; assay: crystal structure

Nc1ncnc2c1ncn2[C@@H]1O[C@H](CSCC[C@H](N)C(=O)O)[C@@H](O)[C@H]1O [S-adenosyl-L-homocysteine]
X-ray crystal structure, 2.50 Å (OxaC [1]; SAM site, product complex with oxaline): a product complex containing SAH and oxaline

C=CC(C)(C)[C@@]12C=C(O)C(=O)N3/C(=C/c4cnc[nH]4)C(=O)N[C@]31N(OC)c1ccccc12 [compound 2, meleagrin]
X-ray crystal structure, 2.95 Å (OxaC [2]; pseudo-Michaelis complex with sinefungin): a pseudo-Michaelis complex composed of the SAM analog sinefungin and the natural substrate meleagrin

C=CC(C)(C)[C@]12C=C(OC)C(=O)N3/C(=C/c4cnc[nH]4)C(=O)N[C@@]31N(OC)c1ccccc12 [compound 3, oxaline]
X-ray crystal structure, 2.50 Å (OxaC [1]; product complex with SAH, co-crystallised with meleagrin and SAM): a product complex containing SAH and oxaline

Nc1ncnc2c1ncn2[C@@H]1O[C@H](C[C@@H](N)CC[C@H](N)C(=O)O)[C@@H](O)[C@H]1O [sinefungin]
X-ray crystal structure, 2.95 Å (OxaC [2]; SAM site, complex with meleagrin): a pseudo-Michaelis complex composed of the SAM analog sinefungin and the natural substrate meleagrin

OxaC (Penicillium oxalicum)
Km [3]: 3.1 ± 0.9 µM | kcat [3]: 1.3 ± 0.2 s⁻¹ | kcat/Km [3]: 420000 M⁻¹ s⁻¹

B1: OxaC (enzyme)
chain: MGSSHHHHHHHHGASENLYFQGASMTFSNADAQKIAVQKDVDEVVAAAQRFLHGSGNATSDEAKVDLQKKASNLVQTIRGPIPAALSSMEDIVKVASLRTLFEAGVFHAMPKGGASMTASEISAQTGLDKGILIRLMRAVTPLGPFHEVGEEEYAHTPFSEAYLTADIAGCFPVMSNFIFGPVLQICDFLRQNNWKDAITTRNNPFTLAHNCPGETMFEHLYKNSKNVAPVTKAEAADVDQIAMDLYPWEERLSDAKGSNATLVDIAGSHGNGTRAIMALAPKLNGCRFIVQDLEPVIGEHSQALRAEGIEPQVYDFLKQEQPVHGASIYYFRRVFHDWPDLPEGKKILDNTRAAMSREHSRILIHDIIVPEIGATMSHAWQDLSLMAIGGMERTEKDFARLLDIAGLALVKVWRKPGDMMGIIEARLK
stoichiometry N (crystal structure): 2
